Data from patent publication US20210283097A1, “METHODS OF DIAGNOSING AND TREATING ALZHEIMER'S DISEASE WITH S-EQUOL” (Ausio Pharmaceuticals, LLC, priority 2016, published 2021).
“Also recorded” adds a separate entry of the source.

Key:
[1] = Safety analysis of S-equol 10 mg twice per day in Alzheimer's disease subjects; assay type: in vivo, human; details: 10 mg twice per day for two weeks, Alzheimer's disease patients
Protocol: (§1) Subjects received a two week supply of medication, which uniformly consisted of placebo, and were instructed to take the study medication twice a day. At the end of this initial two-week period participants returned to the ADC clinical trials unit for their first study visit (visit 1; lead-in evaluation). Visit 1 procedures included an assessment of study medication compliance, vital signs, a query for perceived side effects, the Montreal Cognitive Assessment (MoCA), and a 40 ml phlebotomy; the blood was used to measure platelet mitochondria cytochrome oxidase (COX) and citrate synthase (CS) activities. At the completion of this visit the next two weeks of study medication was dispensed, which uniformly consisted of 10 mg S-equol capsule.
(§2) At the end of this second two-week period participants returned to the ADC clinical trials unit for their second study visit (visit 2; active treatment evaluation). The same procedures were performed during the lead-in evaluation and dispensed the next two weeks of study medication, which at this point uniformly consisted of placebo.
At the end of this final two-week period the participants returned to the ADC clinical trials unit for their third study visit (visit 3; wash-out evaluation). The lead-in and active treatment evaluation procedures were performed again, which completed participation in this single-blind study. […]

[2] = system: rat hippocampal neurons; details: cited from earlier work
[3] = system: platelet mitochondria cytochrome oxidase (COX); assay: Platelet mitochondria COX activity referenced to CS activity (COX/CS) in Alzheimer's disease subjects, single-blind pilot clinical study; assay type: in vivo, human; details: for COX/CS Visit 2 (Mean + SEM): after two weeks of S-equol 10 mg twice a day
Protocol: (§3) Alzheimer's disease subjects were recruited through the University of Kansas Alzheimer's Disease Center (ADC). The ADC maintains a clinical cohort whose routine characterizations include Clinical Dementia Rating (CDR) scale ratings, uniform data set (UDS) cognitive testing, and APOE genotyping. The diagnosis of clinic cohort participants is primarily based on CDR and UDS data, and is determined through a consensus conference that includes subspecialty-trained cognitive neurologists and an expert neuropsychologist. Subjects diagnosed with Alzheimer's disease further meet current criteria for that diagnosis in McKhann et al., Alzheimers Dement, 7 (2011) 263-269.
(§4) To qualify for the study, participants had to be female with very mild (CDR 0.5) or mild (CDR 1) Alzheimer's disease. Each participant was required to have a study partner. As part of the informed consent process, the subjects and study partners were told that during different parts of the study the participants would receive either an S-equol capsule or an inert placebo. The placebo could not be distinguished from the S-equol by sight, touch, or taste so although the investigators knew whether participants at any given point were receiving S-equol or placebo, the participants themselves were blind to the actual treatment. The S-equol and placebo capsule were provided by Ausio Pharmaceuticals, LLC (Cincinnati, Ohio).
as §1, §2
(§5) At the end of this final two-week period the participants returned to the ADC clinical trials unit for their third study visit (visit 3; wash-out evaluation). The lead-in and active treatment evaluation procedures were performed again, which completed participation in this single-blind study.
Forty milliliter blood samples were collected in tubes containing acid-citrate-dextrose (ACD) tubes as an anticoagulant, and maintained at room temperature. Within 24 hours of phlebotomy the blood was processed by the ADC Mitochondrial Genomics and Metabolism Core. To initiate the processing procedure, platelets were isolated by centrifugation and enriched mitochondrial fractions prepared using previously described methods. Such procedures involved nitrogen cavitation to rupture platelets followed by centrifugation to collect mitochondria.
The protein concentrations of the enriched mitochondrial fractions were measured using a BCA protein assay kit (BioRad, Hercules, Calif.). COX Vmax activity was determined as a pseudo first order-rate constant (sec−1/mg) by measuring the oxidation of reduced cytochrome c at 550 nm.
In addition to measuring COX activity, each sample's citrate synthase (CS) Vmax activity (nmol/min/mg) was measured. This assay was performed spectrophotometrically by following the formation of 5-thio-2-nitrobenzoate (412 nm) following the addition of 100 μM oxaloacetate at 30° C. […]

[4] = Montreal Cognitive Assessment (MoCA) in Alzheimer's disease subjects, single-blind pilot clinical study; assay type: in vivo, human; details: for MoCA Visit 2 (Mean + SEM): visit 2 = after two weeks of S-equol 10 mg twice a day; for percent MoCA score change between visit 1 and visit 2 (trend): FIG. 1
Protocol: as §3, §4, §1, §2, §5
Secondary outcomes included a safety analysis of the S-equol 10 mg twice per day dose and an analysis of MoCA scores.
In addition to summarizing MoCA scores by means and standard errors, the percent change between visit 1 and visit 2 scores, as well as the percent change between visit 1 and visit 3 scores, was calculated for each participant.

[5] = system: cytochrome oxidase (COX); details: brains from ovariectomized mice; cited from earlier work

SMILES: Oc1ccc([C@H]2COc3cc(O)ccc3C2)cc1 [S-equol]
- adverse events [1]: No treatment-related adverse events; also recorded: No adverse events occurred
- respiratory and maximal glycolysis fluxes [2]: increase
- COX/CS Visit 2 (Mean + SEM) ([3]; APOE4 Carriers, 8 participants): 4.3E−05 ± 3.5E−06
- COX/CS Visit 2 (Mean + SEM) ([3]; APOE4 non-Carriers, Outlier Excluded, 6 participants): 4.7E−05 ± 7.1E−06
- COX/CS Visit 2 (Mean + SEM) ([3]; APOE4 non-Carriers, Outlier Included, 7 participants): 9.2E−05 ± 4.6E−05
- percent COX/CS change between visit 1 and visit 2 (trend), non-APOE4 carriers versus APOE4 carriers ([3]; FIGS. 3(A) and 3(B)): trended higher
- difference in mean COX/CS values between visits, or between APOE4 carriers and non-carriers ([3]; Table 3): No significant differences
- COX/CS Visit 2 (Mean + SEM) ([3]; Total, Outlier Excluded, 14 participants): 4.5E−05 ± 3.5E−06
- COX/CS Visit 2 (Mean + SEM) ([3]; Total, Outlier Included, 15 participants): 6.6E−05 ± 2.2E−05
- participants with a positive COX/CS response pattern (responders) ([3]; slope visit 1 to 2 greater than slope visit 2 to 3, COX activity referenced to CS activity): 11 of the 15
- MoCA Visit 2 (Mean + SEM) ([4]; APOE4 Carriers, 8 participants): 15.8 ± 2.5
- percent MoCA score change between visit 1 and visit 2 (trend) ([4]; APOE4 carriers): trended in a downward direction
- MoCA Visit 2 (Mean + SEM) ([4]; APOE4 non-Carriers, 7 participants): 13.3 ± 2.1
- percent MoCA score change between visit 1 and visit 2 (trend) ([4]; APOE4 non-carriers): upward direction
- difference in mean MoCA scores between visits, or between APOE4 carriers and non-carriers ([4]; Table 2): No significant differences
- MoCA Visit 2 (Mean + SEM) ([4]; Total, 15 participants): 14.6 ± 6.6
- cytochrome oxidase (COX) activity and COX1 protein levels [5]: increase
